Test results reported in patent US20120121691A1, “Method for Increasing the Production of a Specific ACYL-Chain Dihydroceramide(s) for Improving the Effectiveness of Cancer Treatments” (priority 2010, published 2012).

Legend:
[1] = test system: intracellular sphingolipids, CCRF-CEM cells; test: LC/MS/MS analysis of intracellular sphingolipids, CCRF-CEM; format: cell-based, human; conditions: for increase in corresponding dihydroceramide over sphinganine plus GT-11 alone: fatty acid in addition to sphinganine plus GT-11, six hours, P<0.05
Procedure: (§1) LC/MS/MS analysis of intracellular sphingolipids. Sphingolipids were separated using an Agilent 1200 HPLC (LC) and determined by ESI/MS/MS performed on a AB SCIEX 4000 QTRAP Hybrid Triple Quadrupole/Linear Ion Trap mass spectrometer (MS), operating in a multiple reaction monitoring positive ionization mode as described previously with moderate modifications (25). Briefly, 50 μL of a solution (1 μM) of internal sphingolipid standards (including -sphingosine, -sphinganine, -sphingosine-1-phosphate, and -ceramide) was added to each cell pellet sample. Lipids of each sample were extracted twice with 2 mL of the ethyl acetate/isopropyl alcohol/water (60:28:12; v:v) solvent system. Supernatants were transferred to glass tubes (Kimble Chase) and evaporated under air (10 PSI) at 40° C. After reconstitution in methanol (4 mL), 1 ml of each sample was separated for the determination of lipid phosphate. Remaining sample (3 mL) was dried and used for sphingolipid quantification. For ESI/MS/MS, the dried lipid sample was dissolved in mobile phase A. Samples were injected (10 μL) and separated on a Spectra C8SR, 150×3.0 mm, 3-μm particle size column using gradient-elution (mobile phase A/B, prepared as previously described).
(§2) Data acquisition, peak integration and analyte quantitation were performed using ABI/SCIEX Analyst 1.4.2 Software. Sphingolipid data were normalized to lipid phosphate as previously described (26). Briefly, samples were dried under air (10 PSI) and lipids were extracted using the method of Bligh and Dyer (27). Of importance for phosphate assay, only Kimble Chase disposable borosilicate tubes were used for minimal sample contamination. Organic phase was transferred to glass tubes and a known volume was separated to a new tube and dried at 80° C. Phosphate standards and dried samples were then heated with ashing buffer (water:10 N:70% [40:9:1]) at 160° C. overnight. Samples were then incubated with ammonium molybdate and ascorbic acid as previously described, and absorbance ([…]) was read using a SpectraMax.
CCRF-CEM cells were treated with drug/fatty acid vehicles (control), GT-11 (0.5 μM) alone, sphinganine (4 μM) alone or sphinganine (4 μM) plus GT-11 (0.5 μM) for six hours and subsequently prepared for sphingolipid analysis.
CCRF-CEM cells were treated with GT-11 (0.5 μM) alone, sphinganine (1 μM) alone or sphinganine (1 μM) plus GT-11 (0.5 μM) for six hours and prepared for quantitative analysis. DHCers were normalized to control and plotted as fold change (bar, z-axis). * indicates significance, with P<0.05. […] CCRF-CEM cells were treated with sphinganine (1 μM) plus GT-11 (0.5 μM) with and without specific solubilized fatty acids (carbon chain length (CX) and saturation (:X), Ex: C20:1=fatty acid with 20 carbons and one desaturation) for six hours and prepared for quantitative sphingolipid analysis. Dihydroceramides were normalized to control cells that received sphinganine plus GT-11 with no fatty acid and plotted as fold change (bar, z-axis). * indicates significance, with P<0.05.

[2] = test system: intracellular sphingolipids, COG-LL-317; test: LC/MS/MS analysis of intracellular sphingolipids, COG-LL-317; format: cell-based, human; conditions: for increase in corresponding dihydroceramide over sphinganine+GT-11 alone: COG-LL-317, fatty acid with sphinganine+GT-11, six hours, P<0.05
Procedure: as §1, §2
Cells were treated for 48 hours with Sa (0-4 μM)+/−GT-11 (0.5 μM) with or without C18:0-, C22:0- or C22:1-fatty acids. Cytotoxicity was measured using DIMSCAN, and data was normalized to control and plotted as survival fraction (y-axis). Gray and white symbols represent long and very long chain fatty acids, respectively. Gray lines encompass data used for sphingolipid correlation analysis with cytotoxicity. Datum point, mean; error bar, SEM. […]
Cytotoxicity was measured using DIMSCAN, and data was normalized to control and plotted as survival fraction (y-axis).

[3] = fatty acid 5 μM in addition to sphinganine 1 μM plus GT-11 0.5 μM, six hours, P<0.001
[4] = fatty acid in addition to sphinganine, no GT-11, P<0.001

SMILES | increase in C22:0-DHCer over sphinganine plus GT-11 alone [1, 3] | increase in C24:0-DHCer over sphinganine plus GT-11 alone [1, 3] | increase in corresponding dihydroceramide over sphinganine plus GT-11 alone [1] | increase in C22:0-Cer over sphinganine alone [1, 4] | increase in C24:0-Cer over sphinganine alone [1, 4] | increase of C22:0-dihydroceramide compared to 4-HPR alone ([2]; COG-LL-317, fatty acid with 4-HPR 1.1 μM, six hours, P<0.001) | increase of C22:0-dihydroceramide over sphinganine+GT-11 alone ([2]; COG-LL-317, fatty acid with sphinganine 1 μM plus GT-11 0.5 μM, six hours, P<0.003) | increase in corresponding dihydroceramide over sphinganine+GT-11 alone [2]
CCCCCCCCCCCCCCCCCCCCCC(=O)O [C22:0-fatty acid] | 32 fold | 19 fold | significant increases | 13 fold | 4.6 fold | 11 fold | 13 fold | significant increases
CCCCCCCC/C=C\CCCCCCCCCCCC(=O)O [C22:1-fatty acid] |  |  | significant increases |  |  |  |  | significant increases
